This is an account of results in patent US7645785B2, “Benzimidazole derivatives” (Hoffmann-La Roche Inc., priority 2006, dated 2010).

For assay [1], the target named is T1, FXR-LBD (pFA-FXR-LBD, Gal4 fusion) in BHK21 cells (Homo sapiens, UniProt Q96RI1).
T1 sequence (Q96RI1 262-486 limits assumed): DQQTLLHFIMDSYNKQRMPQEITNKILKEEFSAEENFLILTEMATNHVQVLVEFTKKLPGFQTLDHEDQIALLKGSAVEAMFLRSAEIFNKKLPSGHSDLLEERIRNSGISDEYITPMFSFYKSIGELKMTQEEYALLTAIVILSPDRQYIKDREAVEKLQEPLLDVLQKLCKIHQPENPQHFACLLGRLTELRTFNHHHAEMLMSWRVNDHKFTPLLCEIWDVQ
Put plainly: Luciferase transcriptional reporter gene assay. Type of assay: cell-based. An excerpt:
(§1) Bacterial and mammalian expression vectors were constructed to produce glutathione-s-transferase (GST) and Gal4 DNA binding domain (GAL) proteins fused to the ligand binding domain (LBD) of human FXR (aa 193-473). To accomplish this, the portions of the sequences encoding the FXR LBD were amplified by polymerase chain reaction (PCR) from a full-length clone by PCR and then subcloned into the plasmid vectors. The final clone was verified by DNA sequence analysis.
Luciferase Transcriptional Reporter Gene Assays
Baby hamster kidney cells (BHK21 ATCC CCL10) were grown in DMEM medium containing 10% FBS at 37° C. in a […]:5% CO2 atmosphere. Cells were seeded in 6-well plates at a density of 10^5 cells/well and then transfected with the pFA-FXR-LBD or expression plasmid plus a reporter plasmid. […] Six hours following transfection, the cells were harvested by trypsinization and seeded in 96-well plates at a density of 10^4 cells/well. […] Luminescence, as a measure of luciferase activity, was detected in a Packard TopCount. Transcriptional activation in the presence of a test substance was expressed as fold-change in luminescence compared to that of cells incubated in the absence of the substance. EC50 values were calculated using the XLfit program (ID Business Solutions Ltd. UK).
On the technique in general: Reporter assays use an easily measured gene product as a stand-in for the process of interest.

Assay [2] concerns the target T2, FXR ligand binding domain (GST-FXR LBD fusion protein) (Homo sapiens, UniProt Q96RI1).
T2 construct: made in house; host or cells: E. coli BL21 (pLysS)
T2 sequence (Q96RI1 193-472 isoform Q96RI1-2 limits assumed): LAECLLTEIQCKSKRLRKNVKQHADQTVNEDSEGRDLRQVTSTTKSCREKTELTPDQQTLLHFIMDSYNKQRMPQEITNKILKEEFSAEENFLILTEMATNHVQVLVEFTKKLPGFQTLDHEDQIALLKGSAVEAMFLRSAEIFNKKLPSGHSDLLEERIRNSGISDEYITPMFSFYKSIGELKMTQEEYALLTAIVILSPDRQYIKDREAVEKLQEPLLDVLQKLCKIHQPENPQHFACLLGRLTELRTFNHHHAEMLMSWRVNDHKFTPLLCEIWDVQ
Put plainly: Radioligand binding assay (scintillation proximity, radioligand displacement). The procedure:
The following tests were carried out in order to determine the activity of the compounds of formula (I). Background information on the binding assay can be found in: Nichols J S et al. “Development of a scintillation proximity assay for peroxisome proliferator-activated receptor gamma ligand binding domain”, (1998) Anal. Biochem. 257: 112-119.
as §1
The induction, expression, and subsequent purification of GST-LBD fusion protein was performed in E. coli strain BL21 (pLysS) cells by standard methods (Current Protocols in Molecular Biology, Wiley Press, ed. Ausubel et al).
Radioligand Binding Assay
Binding of test substances to the FXR ligand binding domain was assessed in a radioligand displacement assay. […] All binding assays were performed in 96-well plates and the amount of bound ligand was measured on a Packard TopCount using OptiPlates (Packard). […]
For orientation: SPA uses beads or plates that emit light when radiolabelled molecules are held near them.

Turning to `CC(C)CC(C(=O)NC1CCCCC1)n1c(-c2ccc(Cl)cc2)nc2ccccc21` (stereo not shown) [Example 2, 2-[2-(4-chloro-phenyl)-benzoimidazol-1-yl]-4-methyl-pentanoic acid cyclohexylamide], a half-maximal response in assay [1] (EC50) required 700 nM. In assay [2], the IC50 – broadly, the concentration that inhibits the measured activity by half – was 1500 nM.
`COc1ccc(-c2nc3ccccc3n2C(C(=O)NCc2ccccc2)C2CCCCC2)c(OC)c1` (stereo not shown) [Example 34, N-benzyl-2-cyclohexyl-2-[2-(2,4-dimethoxy-phenyl)-benzoimidazol-1-yl]-acetamide]: in assay [1], a half-maximal effect (EC50) was put at 86 nM. Further, in assay [2], the half-maximal inhibitory concentration (IC50) turned out to be 500 nM.
